Consider 14 compounds from article PMC2217675, “Quantitative High-Throughput Screen Identifies Inhibitors of the Schistosoma mansoni Redox Cascade” (PLoS Neglected Tropical Diseases, 2008).

Structures are written as SMILES. Where two headings read alike, the source gives them in different places.

Test in all cases: biochemical
Assay [1] addresses T1, S. mansoni TGR/Prx2 (Schistosoma mansoni, UniProt Q962Y6).
T1 sequence (Q962Y6 1-598): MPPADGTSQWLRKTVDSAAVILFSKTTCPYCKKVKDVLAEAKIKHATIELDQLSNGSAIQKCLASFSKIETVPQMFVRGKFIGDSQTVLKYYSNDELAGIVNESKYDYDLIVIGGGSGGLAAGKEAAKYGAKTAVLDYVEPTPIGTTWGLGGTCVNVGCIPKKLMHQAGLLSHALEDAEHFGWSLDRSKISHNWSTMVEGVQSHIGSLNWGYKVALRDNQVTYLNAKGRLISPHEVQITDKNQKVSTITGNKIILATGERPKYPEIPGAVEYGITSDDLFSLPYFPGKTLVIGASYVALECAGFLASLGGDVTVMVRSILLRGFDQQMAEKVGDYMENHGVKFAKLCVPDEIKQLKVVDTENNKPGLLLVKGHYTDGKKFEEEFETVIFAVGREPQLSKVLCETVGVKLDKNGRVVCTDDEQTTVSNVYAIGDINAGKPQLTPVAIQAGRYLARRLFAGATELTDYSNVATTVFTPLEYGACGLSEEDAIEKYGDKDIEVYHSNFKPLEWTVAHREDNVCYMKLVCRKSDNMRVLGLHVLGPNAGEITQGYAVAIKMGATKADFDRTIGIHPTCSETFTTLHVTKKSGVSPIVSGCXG
It counts as biochemical.

In assay [2] the target is T1, S. mansoni TGR/Prx2.
Another assay deals with T2, TGR (Schistosoma mansoni, UniProt Q962Y6).
T2 sequence (Q962Y6 1-598): T1 sequence (Q962Y6 1-598)

The mark [3] stands for this setting: DTNB as substrate, 15 nM TGR, read-out: TGR Assay IC50.
Where [4] appears, read: initial high throughput screen of the collection, 25 nM TGR, 50 nM Prx2, read-out: qHTS IC50.

As to `CC1COc2c(N3CCN(C)CC3)c(F)cc3c(=O)c(C(=O)O)cn1c23` (centres unmarked) [Ofloxacin, reference compound], at S. mansoni TGR/Prx2 [1] (primary screen), the “activity in qHTS” value is “apparent activator”.

As to `O=C([O-])[C@H]([O-])[C@@H]([O-])C(=O)[O-].O=C([O-])[C@H]([O-])[C@@H]([O-])C(=O)[O-].[K+].[K+].[Sb+3].[Sb+3]` [PAT, potassium antimonyl tartrate, reference compound], the IC50 on S. mansoni TGR/Prx2 [1] (read-out: average IC50 of intraplate control titration) stood at 14 ± 8 nM.

In the case of `O=P(Nc1ccccc1F)(c1ccccc1)c1nc2ccccc2s1` (centres unmarked) [compound 2], the IC50 is 23000 nM against S. mansoni TGR/Prx2 [2] and 12000 nM against TGR.

`O=C(c1ccco1)c1no[n+]([O-])c1C(=O)c1ccco1` [compound 5]: the IC50 turned out to be 1500 nM at S. mansoni TGR/Prx2 [2] and 25 nM at TGR.

On to `Cc1nn(C)cc1C(=O)c1no[n+]([O-])c1C(=O)c1cn(C)nc1C` [compound 6], for which the results for the IC50 on TGR (setting [3]) and at S. mansoni TGR/Prx2 [1] (setting [4]) were 2000 nM and 24000 nM, respectively.

Consider `O=C(c1cccs1)c1no[n+]([O-])c1C(=O)c1cccs1` [compound 7], for which the IC50 against S. mansoni TGR/Prx2 [2] turned out to be 1500 nM; at TGR (setting [3]), 20 nM; on S. mansoni TGR/Prx2 [1] (setting [4]), 9200 nM.

In the case of `COc1ccc(C(=O)c2no[n+]([O-])c2C(=O)c2ccc(OC)cc2)cc1` [compound 8], the figures for the IC50 against S. mansoni TGR/Prx2 [2], on TGR (setting [3]) and at S. mansoni TGR/Prx2 [1] (setting [4]) were 4700 nM, 60 nM and 10000 nM, respectively.

Consider `N#Cc1c(-c2ccccc2)no[n+]1[O-]` [compound 9], for which the figures for the IC50 at TGR and against S. mansoni TGR/Prx2 [1] were 1800 nM and 8700 nM, respectively.

On to `CCOC(=O)C(C(=O)OCC)c1cc(Br)c2noc3c2c1C(=O)c1ccccc1-3` [compound 10], for which the IC50 on S. mansoni TGR/Prx2 [2] was more than 57000 nM; against TGR it was 9000 nM; on S. mansoni TGR/Prx2 [1], 530 nM.

Consider `COC(=O)C(C(=O)OC)c1cc(Br)c2noc3c2c1C(=O)c1ccccc1-3` [compound 11], for which the values for the IC50 on S. mansoni TGR/Prx2 [2] and on TGR were 120 nM and 80 nM, respectively.

`CCCCOc1cc(Br)c2noc3c2c1C(=O)c1ccccc1-3` [compound 12]: the IC50 turned out to be 840 nM on S. mansoni TGR/Prx2 [2] (read-out: Confirmation IC50) and 150 nM on TGR (setting [3]).

Regarding `CC1=CC(=O)NP(=O)(Oc2ccc(Cl)cc2)N1` (centres unmarked) [compound 13], the IC50 is 420 nM against S. mansoni TGR/Prx2 [2] and 550 nM against TGR.

As to `CC1=CC(=O)NP(=O)(Oc2ccccc2)N1` (centres unmarked) [compound 15], the figures for the IC50 on S. mansoni TGR/Prx2 [2] and at TGR were 2000 nM and 4000 nM, respectively.

Regarding `CCOc1ccc(OP2(=O)NC(=O)C=C(C)N2)cc1` (centres unmarked) [compound 16], the IC50 stood at 180 nM on S. mansoni TGR/Prx2 [2] and 600 nM against TGR.
